In ChEMBL document CHEMBL1201862, “PubChem BioAssay data set” (2004):
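Where inhibition never reached the appropriate level, the endpoint shown equals the highest concentration tested. Otherwise, values were interpolated linearly from a five-concentration, 48-hour dose response in 96-well plates. GI50 = concentration required for 50% inhibition of growth.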 Calls of active or inactive are those of the source. Rule as the data show it: active = GI50 up to about 1.1 µM and inactive = higher.

How the values were obtained:
Assay in all cases: NCI anticancer screen, dose series, 48 h
MOLT-4 = tested on: MOLT-4
LOX IMVI = tested on: LOX IMVI
OVCAR-4 = tested on: OVCAR-4
SW-620 = tested on: SW-620
HCT-15 = tested on: HCT-15
RPMI-8226 = tested on: RPMI-8226
CCRF-CEM = tested on: CCRF-CEM
HT-29 = tested on: HT-29
M14 = tested on: M14
UACC-257 = tested on: UACC-257
HCC 2998 = tested on: HCC 2998
SNB-19 = tested on: SNB-19
OVCAR-5 = tested on: OVCAR-5
NCI-H460 = tested on: NCI-H460
SK-MEL-2 = tested on: SK-MEL-2
COLO 205 = tested on: COLO 205
EKVX = tested on: EKVX
SK-OV-3 = tested on: SK-OV-3
786-0 = tested on: 786-0

Compound | GI50 (MOLT-4) | GI50 (LOX IMVI) | GI50 (OVCAR-4) | GI50 (SW-620) | GI50 (HCT-15) | GI50 (RPMI-8226) | GI50 (CCRF-CEM) | GI50 (HT-29) | GI50 (M14) | GI50 (UACC-257) | GI50 (HCC 2998) | GI50 (SNB-19) | GI50 (OVCAR-5) | GI50 (NCI-H460) | GI50 (SK-MEL-2) | GI50 (COLO 205) | GI50 (EKVX) | GI50 (SK-OV-3) | GI50 (786-0)
Cc1cc(O)nc(NN2C(Cl)C(=O)C2c2cccc(O)c2)n1 (configuration not stated) | 5.38 µM (inactive) | 4.53 µM (inactive) | > 100 µM (inactive) | 12.4 µM (inactive) | 5.74 µM | 9.59 µM (inactive) | 4.63 µM (inactive) | 41.7 µM (inactive) | 7.13 µM (inactive) | 18.7 µM (inactive) | 15.1 µM (inactive) | 3.48 µM (inactive) | 24.9 µM (inactive) | 4.82 µM (inactive) | 4.43 µM (inactive) | 39.4 µM (inactive) | 17.9 µM (inactive) |  | 
Cc1cccc2c1C(=O)OC2(c1cccc2ccccc12)c1cccc2ccccc12 | > 100 µM (inactive) | > 100 µM (inactive) | 89.9 µM (inactive) | > 100 µM (inactive) | > 100 µM |  | > 100 µM (inactive) | > 100 µM (inactive) | > 100 µM (inactive) | > 100 µM (inactive) | > 100 µM (inactive) | 81.1 µM (inactive) | > 100 µM (inactive) | > 100 µM (inactive) | > 100 µM (inactive) | > 100 µM (inactive) | > 100 µM (inactive) | > 100 µM (inactive) | 52.8 µM (inactive)
CC1=C2C(O)C(C(C)CO)C(O)CC2(C)C(O)CC1 (configuration not stated) | > 100 µM (inactive) | > 100 µM (inactive) | > 100 µM (inactive) | > 100 µM (inactive) | > 100 µM | > 100 µM (inactive) | > 100 µM (inactive) | > 100 µM (inactive) | > 100 µM (inactive) | > 100 µM (inactive) | > 100 µM (inactive) | > 100 µM (inactive) | > 100 µM (inactive) | > 100 µM (inactive) |  | > 100 µM (inactive) | > 100 µM (inactive) | > 100 µM (inactive) | > 100 µM (inactive)
O=[N+]([O-])c1cccc(C2=NOC3CCCC23)c1 (configuration not stated) | > 100 µM (inactive) |  | > 100 µM (inactive) | > 100 µM (inactive) | > 100 µM | > 100 µM (inactive) | > 100 µM (inactive) | > 100 µM (inactive) | > 100 µM (inactive) | > 100 µM (inactive) | > 100 µM (inactive) | 25.2 µM (inactive) | > 100 µM (inactive) | > 100 µM (inactive) | > 100 µM (inactive) | > 100 µM (inactive) | > 100 µM (inactive) | > 100 µM (inactive) | > 100 µM (inactive)
CCN(CC)C(=S)SS(C)(=O)=O | 15.8 µM (inactive) | 13.6 µM (inactive) | 19.6 µM (inactive) | 18.5 µM (inactive) | 13.4 µM |  |  | 17.3 µM (inactive) | 18.2 µM (inactive) | 23.2 µM (inactive) |  | 23.9 µM (inactive) | 19.4 µM (inactive) |  | 17.7 µM (inactive) | 15.4 µM (inactive) | 37.2 µM (inactive) | 75.7 µM (inactive) | 19.2 µM (inactive)
CCOC(=O)C12CC1(C(=O)OCC)C1CCC2C1 (configuration not stated) | 90.6 µM (inactive) | > 100 µM (inactive) | > 100 µM (inactive) | > 100 µM (inactive) | > 100 µM | > 100 µM (inactive) | > 100 µM (inactive) | > 100 µM (inactive) | > 100 µM (inactive) | 44.7 µM (inactive) | > 100 µM (inactive) | > 100 µM (inactive) | > 100 µM (inactive) | > 100 µM (inactive) |  | > 100 µM (inactive) |  | > 100 µM (inactive) | > 100 µM (inactive)
Cc1cccc(/N=C2\NC(=O)C(CC(=O)Nc3ccc(C)cc3C)S2)c1 (configuration not stated) | 40.4 µM (inactive) | > 100 µM (inactive) | 48.5 µM (inactive) | > 100 µM (inactive) | > 100 µM | 55.3 µM (inactive) | 92 µM (inactive) | > 100 µM (inactive) | > 100 µM (inactive) | > 100 µM (inactive) | > 100 µM (inactive) | 74.8 µM (inactive) | 88.1 µM (inactive) | > 100 µM (inactive) | > 100 µM (inactive) |  | 47.1 µM (inactive) |  | > 100 µM (inactive)
O/N=C1/C(=C/c2ccc(F)cc2)CCCC1C(NO)c1ccc(F)cc1 (configuration not stated) | 22.3 µM (inactive) |  | 31.5 µM (inactive) | 51.9 µM (inactive) | 38 µM | 20.8 µM (inactive) | 33.2 µM (inactive) | 21.6 µM (inactive) | 32.8 µM (inactive) | 25.4 µM (inactive) | 35.6 µM (inactive) | 52.4 µM (inactive) |  | > 100 µM (inactive) | 34.6 µM (inactive) | 33.5 µM (inactive) | 38.9 µM (inactive) | > 100 µM (inactive) | 76.2 µM (inactive)
CCOC(=O)C1CC(O)C(=O)N1C (configuration not stated) | > 100 µM (inactive) | > 100 µM (inactive) | > 100 µM (inactive) |  | > 100 µM | > 100 µM (inactive) | > 100 µM (inactive) | > 100 µM (inactive) | > 100 µM (inactive) | > 100 µM (inactive) | > 100 µM (inactive) | > 100 µM (inactive) | > 100 µM (inactive) |  | > 100 µM (inactive) | > 100 µM (inactive) | > 100 µM (inactive) | > 100 µM (inactive) | > 100 µM (inactive)
c1ccc(COc2ccc(CC3SCCCS3)cc2)cc1 | 31.8 µM (inactive) | > 100 µM (inactive) | > 100 µM (inactive) | > 100 µM (inactive) | 67.3 µM | 50.2 µM (inactive) | 43.6 µM (inactive) | > 100 µM (inactive) | > 100 µM (inactive) | 21.8 µM (inactive) | > 100 µM (inactive) | > 100 µM (inactive) |  | 65.8 µM (inactive) |  | > 100 µM (inactive) | > 100 µM (inactive) |  | 
COC(=O)C1=C(C)N(NC(=O)c2ccccc2)C2(O)CCCC(=O)C12C (configuration not stated) |  | > 100 µM (inactive) | > 100 µM (inactive) | > 100 µM (inactive) | > 100 µM | > 100 µM (inactive) |  | > 100 µM (inactive) | > 100 µM (inactive) | > 100 µM (inactive) |  | > 100 µM (inactive) | > 100 µM (inactive) |  | > 100 µM (inactive) | > 100 µM (inactive) |  | > 100 µM (inactive) | 
C/C(=C1/N=C(c2cc([N+](=O)[O-])ccc2Cl)N(C2=CC=C(Cl)CC2)C1=O)c1cc2ccccc2oc1=O | 54.6 µM (inactive) | 20.4 µM (inactive) | 24.4 µM (inactive) | 36.5 µM (inactive) |  | 32.4 µM (inactive) | 40.3 µM (inactive) | 63.4 µM (inactive) | 23.9 µM (inactive) | 26.5 µM (inactive) | 24.7 µM (inactive) | 44.1 µM (inactive) | 41.5 µM (inactive) | 28 µM (inactive) |  | 47.6 µM (inactive) | > 100 µM (inactive) | > 100 µM (inactive) | 
COc1nc2[nH]ccc2c(=O)n1C | > 100 µM (inactive) | > 100 µM (inactive) | 20.5 µM (inactive) | > 100 µM (inactive) | > 100 µM | > 100 µM (inactive) | > 100 µM (inactive) | > 100 µM (inactive) | > 100 µM (inactive) | > 100 µM (inactive) |  | > 100 µM (inactive) | > 100 µM (inactive) | > 100 µM (inactive) | > 100 µM (inactive) | > 100 µM (inactive) | > 100 µM (inactive) |  | 
O=c1[nH]c2ccccc2c(=O)n1/N=C\c1ccccc1O | > 100 µM (inactive) | > 100 µM (inactive) |  | > 100 µM (inactive) | > 100 µM | > 100 µM (inactive) | > 100 µM (inactive) | > 100 µM (inactive) | > 100 µM (inactive) | > 100 µM (inactive) |  | > 100 µM (inactive) | > 100 µM (inactive) | > 100 µM (inactive) | > 100 µM (inactive) | > 100 µM (inactive) | 22.8 µM (inactive) | > 100 µM (inactive) | > 100 µM (inactive)
COc1cccc2c1C(=O)c1c(O)c3c(c(O)c1C2=O)C[C@@](O)(C(=O)CO)CC3OC1CC(NCCCCC(OC(C)=O)OC(C)=O)C(O)C(C)O1 (some centres not stated) | 0.00235 µM (active) | 0.00179 µM (active) | 0.00157 µM (active) | 0.00259 µM (active) | 0.00246 µM | 0.00261 µM (active) | 0.00227 µM (active) | 0.00312 µM (active) | 0.00169 µM (active) | 0.00468 µM (active) | 0.00223 µM (active) | 0.00329 µM (active) | 0.0047 µM (active) | 0.00115 µM (active) | 0.00212 µM (active) |  |  | 0.003 µM (active) | 0.00298 µM (active)
NC(CO)c1ccccc1 (configuration not stated) | > 100 µM (inactive) | > 100 µM (inactive) | > 100 µM (inactive) | > 100 µM (inactive) | > 100 µM |  | 8.71 µM (inactive) | > 100 µM (inactive) | > 100 µM (inactive) | > 100 µM (inactive) | > 100 µM (inactive) | > 100 µM (inactive) | > 100 µM (inactive) | > 100 µM (inactive) | > 100 µM (inactive) |  | > 100 µM (inactive) | > 100 µM (inactive) | 
Cn1cnc([N+](=O)[O-])c1Sc1nccc(O)n1 | > 100 µM (inactive) | > 100 µM (inactive) | > 100 µM (inactive) | > 100 µM (inactive) |  | > 100 µM (inactive) | > 100 µM (inactive) | > 100 µM (inactive) | > 100 µM (inactive) | > 100 µM (inactive) | > 100 µM (inactive) | > 100 µM (inactive) | > 100 µM (inactive) | > 100 µM (inactive) | > 100 µM (inactive) | > 100 µM (inactive) | > 100 µM (inactive) | > 100 µM (inactive) | > 100 µM (inactive)
